The results in this text go back to article PMC4239038, “The Potent Cdc7-Dbf4 (DDK) Kinase Inhibitor XL413 Has Limited Activity in Many Cancer Cell Lines and Discovery of Potential New DDK Inhibitor Scaffolds” (PLoS ONE, 2014).

Usually ΔTm stands for the shift of the melting midpoint relative to a reference.

Counter-ions that a name gives are not always drawn.

T1 sequence (O00311 whole entry): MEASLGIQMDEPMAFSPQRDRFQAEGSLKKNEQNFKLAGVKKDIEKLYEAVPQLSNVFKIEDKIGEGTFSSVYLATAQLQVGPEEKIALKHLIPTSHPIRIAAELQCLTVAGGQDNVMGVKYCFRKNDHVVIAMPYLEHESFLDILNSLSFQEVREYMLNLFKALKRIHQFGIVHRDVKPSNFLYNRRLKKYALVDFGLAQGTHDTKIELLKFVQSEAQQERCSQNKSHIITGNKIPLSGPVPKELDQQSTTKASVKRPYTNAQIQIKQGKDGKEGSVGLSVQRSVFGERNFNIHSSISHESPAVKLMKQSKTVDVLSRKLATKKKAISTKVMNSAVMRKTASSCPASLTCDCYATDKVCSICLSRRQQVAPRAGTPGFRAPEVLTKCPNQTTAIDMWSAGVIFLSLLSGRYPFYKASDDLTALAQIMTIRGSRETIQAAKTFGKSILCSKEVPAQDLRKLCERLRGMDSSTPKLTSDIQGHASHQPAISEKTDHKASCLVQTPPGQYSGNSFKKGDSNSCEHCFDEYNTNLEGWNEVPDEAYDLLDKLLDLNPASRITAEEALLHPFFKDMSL
T1 sequence (Q9UBU7 341-674 partner limits assumed): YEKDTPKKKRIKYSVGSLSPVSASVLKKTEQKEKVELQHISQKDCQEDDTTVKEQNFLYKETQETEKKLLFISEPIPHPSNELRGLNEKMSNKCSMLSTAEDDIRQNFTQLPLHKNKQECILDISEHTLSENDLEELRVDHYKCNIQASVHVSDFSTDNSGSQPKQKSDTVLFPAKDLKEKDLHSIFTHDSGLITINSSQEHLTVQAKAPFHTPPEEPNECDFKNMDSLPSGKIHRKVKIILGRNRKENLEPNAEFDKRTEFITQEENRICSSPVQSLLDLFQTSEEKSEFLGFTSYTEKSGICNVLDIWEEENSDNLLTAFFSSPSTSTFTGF

One experiment concerns the target T1, purified DDK (Homo sapiens, UniProt O00311).
T1 construct: His6-Smt3 (SUMO) (N, cleaved yes); made in house; host or cells: E. coli BL21-RIPL (pKT37, pETDuet-1 vector)
The experiment in a line: DDK thermal stability shift assay (TSA). Type of experiment: binding. The note with it: library screen, 20 µM compound.
In the case of `O=c1[nH]c2ccccc2n1C1CCN(Cc2ccc(-c3nc4cc5nc[nH]c5cc4nc3-c3ccccc3)cc2)CC1`, the shift in melting temperature (ΔTm) was determined as 0 °C.

Take `COc1cc2ncnc(N3CCN(C(=O)Nc4ccc(Oc5ccccc5)cc4)CC3)c2cc1OC`: the ΔTm is 0 °C. Same read-out and setting: the value for `COc1cc2c(cc1OC)-c1[nH]nc(Nc3cccc(F)c3)c1C2` was 0.3 °C; that for `O=C1Cc2c([nH]c3ccc(Br)cc23)-c2ncccc2N1` [1-Azakenpaullone] was 0.6 °C. Still for that read-out and setting: the value for `Cc1ncc2ccccc2c1C#N` [4-Cyano-3-methylisoquinoline] was 0 °C; that for `Nc1ncnc2c1c(I)cn2[C@@H]1O[C@H](CO)[C@@H](O)[C@H]1O` [5-Iodotubercidin] was 1.9 °C; that for `CCN(CC)CCCCN1c2ccccc2Oc2ccc(Cl)cc21.Cl` [10-DEBC hydrochloride] was 0.8 °C. Same read-out and setting: as for `CC(C)(C)c1cc(C=C(C#N)C#N)cc(Br)c1O` [AG 1024], the figure is 1.2 °C; as for `COc1cc2ncc(-c3ccccc3)nc2cc1OC` [AG 1296], 0 °C. `COc1cc2ncnc(Nc3cccc(Cl)c3)c2cc1OC` [AG 1478]: the ΔTm was found to be 0.3 °C. On the same count and under the same terms, the value for `Cc1nc2cc3nc(-c4cccs4)cnc3cc2n1C` [AGL 2043] was 0 °C.

For `O=c1cc(-c2cccc3c2Sc2ccccc2S3)oc(N2CCOCC2)c1` [ATM Kinase Inhibitor], the ΔTm was found to be 1.1 °C. As for `CCN(CC)CCCCN1c2ccccc2Oc2ccc(Cl)cc21` [Akt Inhibitor X], the ΔTm at 20 µM came out at 0.3 °C. With `O=C1Cc2c([nH]c3ccc([N+](=O)[O-])cc23)-c2ccccc2N1` [Alsterpaullone], the thermal shift (ΔTm) at 20 µM was determined as 0.5 °C.

As to `O=C1NC(=O)c2c1c1c3ccccc3[nH]c1c1[nH]c3ccccc3c21` [Arcyriaflavin A], the ΔTm worked out at 0.5 °C. In the case of `Cc1ccc(S(=O)(=O)/C=C/C#N)cc1` [BAY 11-7082], the ΔTm stood at 0 °C. As for `CN1CCC(Nc2ncc3ncnc(Nc4ccc(F)c(Cl)c4)c3n2)CC1.Cl.Cl` [BIBX 1382 dihydrochloride], the ΔTm was 0.8 °C. On the same count and under the same terms, as for `Cn1cnc2cc3c(Nc4cccc(Br)c4)ncnc3cc21` [BPIQ-I], the figure is 0.2 °C.

Regarding `O=C1NC(=O)c2cc(Nc3ccc(F)cc3)c(Nc3ccc(F)cc3)cc21` [CGP 53353], the ΔTm at 20 µM was 0.4 °C.

Regarding `O=C(O)/C=C/c1cc(Br)c(Br)c(Br)c1Br` [Casein Kinase II Inhibitor III, TBCA], the ΔTm worked out at 32 °C. On the same count and under the same terms, the value for `O=C1N=C(NCc2cccs2)SC1=Cc1ccc2ncccc2c1` [Cdk1 Inhibitor IV, RO-3306, 5-(6-Quinolinylmethylene)-2-[(2-thienylmethyl)amino]-4(5H)-thiazolone] was 2.2 °C; that for `CCN(CC)C(=O)c1ccc(Nc2nc(OCC3CCCCC3)c3[nH]cnc3n2)cc1` [Cdk2 Inhibitor IV, NU6140] was 0.2 °C; that for `Cc1nc(N)sc1-c1ccnc(Nc2cccc([N+](=O)[O-])c2)n1` [Cdk2/9 Inhibitor] was 0.3 °C. Still for that read-out and setting: as for `Cc1ccc2c(=O)c3ccccc3n(CCCN)c2c1C.O=C(O)/C=C\C(=O)O` [ER 27319 maleate], the figure is 0.5 °C; as for `Nc1[nH]nc2nnc(-c3c(-c4ccccc4)nn4ccccc34)cc12` [ERK Inhibitor II, FR180204], 0 °C.

In the case of `O=S(=O)(c1cccc2cnccc12)N1CCCNCC1` [Fasudil hydrochloride], the ΔTm at 20 µM stood at 0.9 °C.

Take `c1ccc(-c2cnc(Nc3ccc(OCCN4CCCC4)cc3)s2)cc1` [Flt-3 Inhibitor III]: the shift in melting temperature (ΔTm) came out at 0.3 °C. Still for that read-out and setting: the value for `O=C1Nc2ccc(I)cc2C1=Cc1cc(Br)c(O)c(Br)c1` [GW 5074, 3-(3,5-Dibromo-4-hydroxy-benzylidene)-5-iodo-1,3-dihydro-indol-2-one] was 3.5 °C. In the case of `CNCCNS(=O)(=O)c1cccc2cnccc12.Cl.Cl` [H-8, Dihydrochloride], the ΔTm stood at 0.5 °C. In the case of `Cl.Cl.NC(N)=NCCNS(=O)(=O)c1cccc2cnccc12` [HA 1004, Dihydrochloride], the ΔTm was 0 °C. Same read-out and setting: the value for `O=C(c1ccc(Nc2nccc(-c3cc4ccccc4s3)n2)cc1)N1CCC(N2CCCC2)CC1` [IKK 16] was 1.5 °C; that for `O=C(c1ccc(Nc2nccc(-c3cc4ccccc4s3)n2)cc1)N1CCC(N2CCCC2)CC1` [IKK Inhibitor VII] was 1.7 °C.

Take `O=C(Nc1cc(Cl)cc2c1[nH]c1cnccc12)c1cccnc1` [IKK Inhibitor X]: the shift in melting temperature (ΔTm) stood at 0 °C.

For the molecule `N#Cc1c(C2CCNCC2)cc(-c2c(O)cccc2OCC2CC2)nc1N` [IKK-2 Inhibitor VIII], the ΔTm amounted to 1.9 °C. Still for that read-out and setting: the value for `NC(=O)Nc1sc(-c2ccccc2)cc1C(N)=O` [IKK-2 Inhibitor VI] was 1.2 °C. On the same count and under the same terms, as for `NC(=O)Nc1cc(-c2ccccc2)sc1C(N)=O` [IKK-2 Inhibitor XI], the figure is 0.3 °C; as for `O=C1Nc2ccc(I)cc2/C1=C1/Nc2ccccc2/C1=N\O` [Indirubin-3'-monoxime, 5-Iodo-], 0.5 °C.

In the case of `O=C1NC(=O)c2c1c1c3ccccc3[nH]c1n1cncc21` [Isogranulajmide], the ΔTm at 20 µM was 1 °C. Take `Cn1nc2c3c(cccc31)C(=O)c1ccccc1-2` [JNK Inhibitor, Negajve Control]: the ΔTm is 0 °C. Same read-out and setting: as for `CCCCCCOC(=O)[C@]1(O)C[C@@H]2O[C@@]1(C)n1c3ccccc3c3c4c(c5c6ccccc6n2c5c31)C(=O)NC4` [KT5720], the figure is 0.2 °C; as for `COc1cc2nccc(Oc3ccc(NC(=O)Nc4ccc(F)cc4F)c(F)c3)c2cc1OC` [Ki 8751], 0.2 °C; as for `C/C(O)=C(\C#N)C(=O)Nc1cc(Br)ccc1Br` [LFM-A13], 0 °C. Still for that read-out and setting: the value for `Cl.O=c1cc(N2CCOCC2)oc2c(-c3ccccc3)cccc12` [LY 294002 hydrochloride] was 0.8 °C.

On to `O=c1cc(N2CCOCC2)oc2c(-c3ccccc3)cccc12` [LY 294002], for which the ΔTm at 20 µM came out at 0.8 °C. Consider `O=c1cc(N2CCNCC2)oc2c(-c3ccccc3)cccc12` [LY 303511], for which the ΔTm at 20 µM came out at 0.1 °C. In the case of `Cl.O=S(=O)(c1cccc2c(Cl)cccc12)N1CCCNCC1` [ML 9 hydrochloride], the ΔTm is 0.6 °C. Same read-out and setting: the value for `Cl.O=S(=O)(c1cccc2c(I)cccc12)N1CCCNCC1` [ML-7, Hydrochloride] was 0.3 °C.

Still in this experiment, the particulars now being: library screen, 20 µM compound; 20 µM.
On to `O=C(NC(NC(=S)Nc1ccc(F)c([N+](=O)[O-])c1)C(Cl)(Cl)Cl)C(c1ccccc1)c1ccccc1` (centres unmarked) [CGK 733], for which the thermal shift (ΔTm) was 0.2 °C. Regarding `Nc1ncnc2n[nH]c(Nc3ccc(F)cc3)c12` [CGP 57380], the shift in melting temperature (ΔTm) turned out to be 0.5 °C. Same read-out and setting: as for `O=c1cc(N2CCOCC2)oc2c1ccc1ccccc12` [DNA-PK Inhibitor II], the figure is 1 °C; as for `CN(C)CCCn1cc(C2=C(c3c[nH]c4ccccc34)C(=O)NC2=O)c2ccccc21` [GF 109203X], 0.6 °C; as for `Cl.Cl.O=S(=O)(NCCNC/C=C/c1ccc(Br)cc1)c1cccc2cnccc12` [H 89 dihydrochloride], 0.3 °C.

The experiment is the same for the next values; noted with them: titration across a 200-fold range of inhibitor concentrations.
Take `O=c1c(-c2ccc(O)cc2)coc2cc(O)cc(O)c12` [Genistein, 5,7-Dihydroxy-3-(4-hydroxyphenyl)-4H-1-benzopyran-4-one]: the ΔTm profile entry was “increased ΔTm at lower inhibitor concentrations and then decreased ΔTm at 5, 10 and 20 µM concentrations”.
